Results as given in ChEMBL document CHEMBL5442219.

Key:
Conditions in all cases: Compound concentration 10 µM
[1] = target: T1, Alpha-1A adrenergic receptor (Homo sapiens) (UniProt P35348)
T1 sequence (whole entry): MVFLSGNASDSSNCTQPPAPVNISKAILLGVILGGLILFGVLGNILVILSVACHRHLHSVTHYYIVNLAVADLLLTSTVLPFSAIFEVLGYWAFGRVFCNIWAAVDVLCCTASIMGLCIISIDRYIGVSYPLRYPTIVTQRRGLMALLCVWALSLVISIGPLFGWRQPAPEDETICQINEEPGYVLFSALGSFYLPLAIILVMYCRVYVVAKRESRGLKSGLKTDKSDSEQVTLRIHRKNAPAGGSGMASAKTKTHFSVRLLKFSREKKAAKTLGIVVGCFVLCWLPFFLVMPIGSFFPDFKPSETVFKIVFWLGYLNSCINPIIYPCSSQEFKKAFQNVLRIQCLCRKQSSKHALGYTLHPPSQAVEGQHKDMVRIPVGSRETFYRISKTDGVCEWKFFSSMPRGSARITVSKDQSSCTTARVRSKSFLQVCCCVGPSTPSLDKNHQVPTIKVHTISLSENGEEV
Description: PDSP Primary Binding target: ADRA1A - Compounds are tested at 10 uM concentration, plate are incubated at room temperature in the dark for 90 minutes. Reaction are stopped by vacuum filtration onto 0.3% polyethyleneimine soaked filter mats using Filtermate harvester. Scintilation cocktail is then melted onto microwave-dried filters on a hot plate and the radio activity is counted in Microbia counter.

[2] = target: T2, Alpha-1B adrenergic receptor (Homo sapiens) (UniProt P35368)
T2 sequence (whole entry): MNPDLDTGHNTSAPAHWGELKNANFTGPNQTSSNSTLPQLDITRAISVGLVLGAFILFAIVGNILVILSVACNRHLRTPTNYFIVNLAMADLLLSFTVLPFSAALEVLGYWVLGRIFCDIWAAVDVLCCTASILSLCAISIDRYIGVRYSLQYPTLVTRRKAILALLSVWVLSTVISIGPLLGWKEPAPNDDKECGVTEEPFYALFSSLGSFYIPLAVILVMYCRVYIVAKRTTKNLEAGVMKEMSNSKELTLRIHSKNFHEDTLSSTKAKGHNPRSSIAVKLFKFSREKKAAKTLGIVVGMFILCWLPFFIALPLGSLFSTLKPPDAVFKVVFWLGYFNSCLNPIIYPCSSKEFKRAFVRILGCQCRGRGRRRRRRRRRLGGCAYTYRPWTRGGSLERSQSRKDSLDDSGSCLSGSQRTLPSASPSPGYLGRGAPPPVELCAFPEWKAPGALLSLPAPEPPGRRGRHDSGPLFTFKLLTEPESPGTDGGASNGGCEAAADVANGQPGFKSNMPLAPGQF
Description: PDSP Primary Binding target: ADRA1B - Compounds are tested at 10 uM concentration, plate are incubated at room temperature in the dark for 90 minutes. Reaction are stopped by vacuum filtration onto 0.3% polyethyleneimine soaked filter mats using Filtermate harvester. Scintilation cocktail is then melted onto microwave-dried filters on a hot plate and the radio activity is counted in Microbia counter.

[3] = target: T3, Muscarinic acetylcholine receptor M5 (Homo sapiens) (UniProt P08912)
T3 sequence (whole entry): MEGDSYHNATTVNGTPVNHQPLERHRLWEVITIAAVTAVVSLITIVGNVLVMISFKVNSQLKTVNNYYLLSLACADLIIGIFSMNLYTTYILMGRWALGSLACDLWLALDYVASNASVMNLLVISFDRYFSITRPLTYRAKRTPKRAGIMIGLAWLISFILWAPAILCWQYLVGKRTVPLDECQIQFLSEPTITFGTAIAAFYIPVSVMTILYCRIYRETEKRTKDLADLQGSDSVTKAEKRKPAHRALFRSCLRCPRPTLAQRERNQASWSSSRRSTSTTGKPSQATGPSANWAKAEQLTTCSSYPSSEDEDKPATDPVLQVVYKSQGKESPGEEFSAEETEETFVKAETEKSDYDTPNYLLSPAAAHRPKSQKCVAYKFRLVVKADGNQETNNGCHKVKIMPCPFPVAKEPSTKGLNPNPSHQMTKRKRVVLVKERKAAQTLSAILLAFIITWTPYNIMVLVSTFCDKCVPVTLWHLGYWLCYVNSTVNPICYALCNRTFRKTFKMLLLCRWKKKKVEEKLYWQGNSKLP
Description: PDSP Primary Binding target: CHRM5 - Compounds are tested at 10 uM concentration, plate are incubated at room temperature in the dark for 90 minutes. Reaction are stopped by vacuum filtration onto 0.3% polyethyleneimine soaked filter mats using Filtermate harvester. Scintilation cocktail is then melted onto microwave-dried filters on a hot plate and the radio activity is counted in Microbia counter.

[4] = target: 5-hydroxytryptamine receptor 1D (Homo sapiens) (UniProt P28221)
Sequence of 5-hydroxytryptamine receptor 1D (Homo sapiens) (P28221 whole entry): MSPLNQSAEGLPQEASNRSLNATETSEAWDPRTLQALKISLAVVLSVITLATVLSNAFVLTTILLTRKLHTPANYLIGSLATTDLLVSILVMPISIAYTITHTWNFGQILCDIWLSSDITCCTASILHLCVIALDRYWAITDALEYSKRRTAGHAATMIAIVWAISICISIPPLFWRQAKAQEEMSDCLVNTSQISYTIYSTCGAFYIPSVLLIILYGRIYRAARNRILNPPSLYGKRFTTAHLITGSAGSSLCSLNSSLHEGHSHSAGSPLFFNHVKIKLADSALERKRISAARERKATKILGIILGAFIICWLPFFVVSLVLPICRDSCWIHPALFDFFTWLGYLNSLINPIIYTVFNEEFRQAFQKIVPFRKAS
Description: PDSP Primary Binding target: HTR1D - Compounds are tested at 10 uM concentration, plate are incubated at room temperature in the dark for 90 minutes. Reaction are stopped by vacuum filtration onto 0.3% polyethyleneimine soaked filter mats using Filtermate harvester. Scintilation cocktail is then melted onto microwave-dried filters on a hot plate and the radio activity is counted in Microbia counter.

[5] = target: T4, 5-hydroxytryptamine receptor 2C (Homo sapiens) (UniProt P28335)
T4 sequence (whole entry): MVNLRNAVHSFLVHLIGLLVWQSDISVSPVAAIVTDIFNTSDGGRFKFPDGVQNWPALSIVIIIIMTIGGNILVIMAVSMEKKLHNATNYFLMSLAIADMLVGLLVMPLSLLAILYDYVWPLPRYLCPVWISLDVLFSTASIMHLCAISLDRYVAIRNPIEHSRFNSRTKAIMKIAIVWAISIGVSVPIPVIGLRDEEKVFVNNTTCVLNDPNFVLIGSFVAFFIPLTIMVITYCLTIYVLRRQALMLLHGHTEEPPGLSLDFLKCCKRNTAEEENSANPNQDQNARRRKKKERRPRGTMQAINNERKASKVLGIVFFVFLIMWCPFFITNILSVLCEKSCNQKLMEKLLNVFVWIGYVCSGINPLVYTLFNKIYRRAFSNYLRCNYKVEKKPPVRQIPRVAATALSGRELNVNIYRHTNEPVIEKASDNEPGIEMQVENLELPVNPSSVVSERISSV
Description: PDSP Primary Binding target: HTR2C - Compounds are tested at 10 uM concentration, plate are incubated at room temperature in the dark for 90 minutes. Reaction are stopped by vacuum filtration onto 0.3% polyethyleneimine soaked filter mats using Filtermate harvester. Scintilation cocktail is then melted onto microwave-dried filters on a hot plate and the radio activity is counted in Microbia counter.

[6] = target: T5, 5-hydroxytryptamine receptor 3A (Homo sapiens) (UniProt P46098)
T5 sequence (whole entry): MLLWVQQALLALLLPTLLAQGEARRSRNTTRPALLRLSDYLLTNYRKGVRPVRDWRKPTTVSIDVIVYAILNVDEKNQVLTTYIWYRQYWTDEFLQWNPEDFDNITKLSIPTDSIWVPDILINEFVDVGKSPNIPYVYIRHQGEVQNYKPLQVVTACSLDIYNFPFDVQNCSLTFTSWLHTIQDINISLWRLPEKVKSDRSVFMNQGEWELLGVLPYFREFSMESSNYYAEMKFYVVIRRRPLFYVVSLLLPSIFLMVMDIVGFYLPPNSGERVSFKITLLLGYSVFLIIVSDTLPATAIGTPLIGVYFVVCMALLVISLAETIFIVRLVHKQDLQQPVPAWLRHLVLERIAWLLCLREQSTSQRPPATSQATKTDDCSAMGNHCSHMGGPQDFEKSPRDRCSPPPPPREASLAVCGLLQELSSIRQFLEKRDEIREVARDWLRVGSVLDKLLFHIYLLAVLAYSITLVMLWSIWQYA
Description: PDSP Primary Binding target: HTR3A - Compounds are tested at 10 uM concentration, plate are incubated at room temperature in the dark for 90 minutes. Reaction are stopped by vacuum filtration onto 0.3% polyethyleneimine soaked filter mats using Filtermate harvester. Scintilation cocktail is then melted onto microwave-dried filters on a hot plate and the radio activity is counted in Microbia counter.

[7] = target: Mu-type opioid receptor (Homo sapiens) (UniProt P35372)
Sequence of Mu-type opioid receptor (Homo sapiens) (P35372 whole entry): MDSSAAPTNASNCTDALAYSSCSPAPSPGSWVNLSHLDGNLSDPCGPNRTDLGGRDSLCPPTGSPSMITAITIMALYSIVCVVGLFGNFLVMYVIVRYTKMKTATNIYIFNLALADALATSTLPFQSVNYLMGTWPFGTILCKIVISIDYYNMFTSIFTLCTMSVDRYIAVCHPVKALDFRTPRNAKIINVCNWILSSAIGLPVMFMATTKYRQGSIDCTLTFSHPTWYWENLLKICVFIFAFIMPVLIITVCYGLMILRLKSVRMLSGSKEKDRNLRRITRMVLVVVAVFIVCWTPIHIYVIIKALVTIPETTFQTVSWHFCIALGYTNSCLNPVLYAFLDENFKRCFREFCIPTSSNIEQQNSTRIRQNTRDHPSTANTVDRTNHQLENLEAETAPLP
Description: PDSP Primary Binding target: OPRM1 - Compounds are tested at 10 uM concentration, plate are incubated at room temperature in the dark for 90 minutes. Reaction are stopped by vacuum filtration onto 0.3% polyethyleneimine soaked filter mats using Filtermate harvester. Scintilation cocktail is then melted onto microwave-dried filters on a hot plate and the radio activity is counted in Microbia counter.

[8] = target: Translocator protein (Homo sapiens) (UniProt P30536)
Sequence of Translocator protein (Homo sapiens) (P30536 whole entry): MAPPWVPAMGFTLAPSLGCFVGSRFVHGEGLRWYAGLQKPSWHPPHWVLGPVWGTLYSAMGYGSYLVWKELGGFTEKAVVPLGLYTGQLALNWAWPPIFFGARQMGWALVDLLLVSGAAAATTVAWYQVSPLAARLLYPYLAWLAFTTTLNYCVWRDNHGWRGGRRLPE
Description: PDSP Primary Binding target: TSPO - Compounds are tested at 10 uM concentration, plate are incubated at room temperature in the dark for 90 minutes. Reaction are stopped by vacuum filtration onto 0.3% polyethyleneimine soaked filter mats using Filtermate harvester. Scintilation cocktail is then melted onto microwave-dried filters on a hot plate and the radio activity is counted in Microbia counter.

[9] = target: Beta-3 adrenergic receptor (Homo sapiens) (UniProt P13945)
Sequence of Beta-3 adrenergic receptor (Homo sapiens) (P13945 whole entry, looked up): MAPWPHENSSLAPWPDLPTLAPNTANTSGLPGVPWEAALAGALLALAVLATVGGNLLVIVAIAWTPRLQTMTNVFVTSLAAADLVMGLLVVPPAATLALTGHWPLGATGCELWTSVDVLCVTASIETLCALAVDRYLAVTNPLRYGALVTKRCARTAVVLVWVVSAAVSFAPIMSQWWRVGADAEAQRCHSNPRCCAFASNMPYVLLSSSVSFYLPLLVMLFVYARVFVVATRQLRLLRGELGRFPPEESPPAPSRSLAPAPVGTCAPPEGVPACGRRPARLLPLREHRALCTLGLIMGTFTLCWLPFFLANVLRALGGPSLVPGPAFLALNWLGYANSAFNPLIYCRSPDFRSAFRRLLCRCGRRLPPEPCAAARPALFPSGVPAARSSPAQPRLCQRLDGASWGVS
Description: PDSP Primary Binding target: ADRB3 - Compounds are tested at 10 uM concentration, plate are incubated at room temperature in the dark for 90 minutes. Reaction are stopped by vacuum filtration onto 0.3% polyethyleneimine soaked filter mats using Filtermate harvester. Scintilation cocktail is then melted onto microwave-dried filters on a hot plate and the radio activity is counted in Microbia counter.

[10] = target: Histamine H2 receptor (Homo sapiens) (UniProt P25021)
Sequence of Histamine H2 receptor (Homo sapiens) (P25021 whole entry): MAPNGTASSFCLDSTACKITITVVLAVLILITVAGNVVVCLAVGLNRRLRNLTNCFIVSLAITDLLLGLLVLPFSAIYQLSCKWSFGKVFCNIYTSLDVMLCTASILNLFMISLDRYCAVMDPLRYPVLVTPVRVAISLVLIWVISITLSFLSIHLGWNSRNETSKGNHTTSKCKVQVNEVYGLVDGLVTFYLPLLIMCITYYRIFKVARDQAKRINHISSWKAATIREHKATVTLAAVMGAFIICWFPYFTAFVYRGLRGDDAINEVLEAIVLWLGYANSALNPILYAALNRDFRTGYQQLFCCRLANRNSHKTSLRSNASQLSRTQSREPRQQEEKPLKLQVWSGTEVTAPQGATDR
Description: PDSP Primary Binding target: HRH2 - Compounds are tested at 10 uM concentration, plate are incubated at room temperature in the dark for 90 minutes. Reaction are stopped by vacuum filtration onto 0.3% polyethyleneimine soaked filter mats using Filtermate harvester. Scintilation cocktail is then melted onto microwave-dried filters on a hot plate and the radio activity is counted in Microbia counter.

With `Cc1c(P(=S)(c2ccccc2)c2ccccc2)n2ccccc2[n+]1C/C=C/c1ccccc1` the inhibition [1] was 28.7%, the inhibition [2] was 39.9% and the inhibition [3] was 89%. It also gave an inhibition [4] of 40.5%, an inhibition [5] of 25.7% and an inhibition [6] of 20.9%. It also gave an inhibition [7] of 87.3%, an inhibition [8] of 6.66% and an inhibition [9] of 68.2%. It also gave an inhibition [10] of 76.4%.
`Cc1cn2cc(CC(=O)N3CCC4(CC3)CN(Cc3ccc(-n5nccn5)cc3Cl)C4)nc2s1` gave an inhibition [1] of -6.22%, an inhibition [2] of 33.4% and an inhibition [3] of 71.8%. For the same molecule, the inhibition [4] was 4.85%, the inhibition [5] was -3.75% and the inhibition [6] was 1.22%. The inhibition [7] was 21.4%, the inhibition [8] was 0.99% and the inhibition [9] was 25.6%. The inhibition [10] was 60.1%.
`N#Cc1ccc(NC(=O)Nc2ccccc2Br)c2nn[nH]c12` was tested, and the inhibition [2] was 13.2%, the inhibition [3] was 6.48% and the inhibition [4] was 1.14%. The inhibition [5] was 26.9%, the inhibition [6] was 4.92% and the inhibition [7] was 27.1%. For the same molecule, the inhibition [8] was 53.9%, the inhibition [9] was 75% and the inhibition [10] was 17.7%.
In the case of `N#Cc1c[nH]c2c(C(=O)N3CCN(CCc4ccc(F)cc4)CC3)cccc12`, the inhibition [1] is reported as -8.21%, the inhibition [2] is reported as 36.8% and the inhibition [3] is reported as -9.78%. It also gave an inhibition [4] of 61.7%, an inhibition [5] of 58.7% and an inhibition [6] of -8.41%. The inhibition [9] was 22.4% and the inhibition [10] was 4.27%.
`Cc1nc(C#Cc2ccnc(Cl)c2)c(C)n1-c1ccc(OC(F)(F)F)cc1` gave an inhibition [1] of 14.3%, an inhibition [3] of -6.77% and an inhibition [4] of 48.9%. The inhibition [5] was 1.86%, the inhibition [6] was -5.17% and the inhibition [7] was 13.4%. It also gave an inhibition [8] of 64.3%, an inhibition [9] of 63% and an inhibition [10] of 10.4%.
With `CS(=O)(=O)NC[C@H]1CC[C@H](Nc2nc3c(s2)CCSc2ccccc2-3)CC1` the inhibition [1] was -9.44%, the inhibition [2] was -8.21% and the inhibition [3] was -4.92%. For the same molecule, the inhibition [4] was 50.8%, the inhibition [5] was 0.89% and the inhibition [6] was 0.88%. The inhibition [7] was -6.3%, the inhibition [8] was 35.9% and the inhibition [9] was 45.4%. It also gave an inhibition [10] of -2.3%.
`Cc1ccc2c(c1)c1c(n2CCc2ccc(C)nc2)CCN(C)C1` gave an inhibition [1] of 88.6%, an inhibition [2] of 85% and an inhibition [3] of -2.89%. For the same molecule, the inhibition [4] was 70.8%, the inhibition [5] was 81.4% and the inhibition [6] was 21.6%. It also gave an inhibition [7] of 2.42%, an inhibition [8] of 11.9% and an inhibition [9] of 0.23%. It also gave an inhibition [10] of 96.5%.
For `CNc1nc(NCc2ccc(NS(C)(=O)=O)cc2Cl)cc(-c2ccccn2)n1`, the inhibition [1] was 8%, the inhibition [2] was 26.4% and the inhibition [3] was 6.84%. For the same molecule, the inhibition [4] was 0.67%, the inhibition [5] was 55.4% and the inhibition [6] was -0.08%. The inhibition [7] was 14.5%, the inhibition [8] was 54.8% and the inhibition [9] was 15%. The inhibition [10] was 18%.
`Cc1cc(C)cc(-c2cnc3cc(Cl)c(-c4cccc(O)c4)cc3c2OCCCN)c1` was tested, and the inhibition [1] was 28.4%, the inhibition [2] was 81.8% and the inhibition [3] was 3.7%. The inhibition [4] was 91.8%, the inhibition [5] was 79.8% and the inhibition [6] was 43.9%. It also gave an inhibition [7] of 75.9%, an inhibition [8] of 79.5% and an inhibition [9] of 99.4%. For the same molecule, the inhibition [10] was 81.6%.
Molecule `CN1CCCC(n2nc(Cc3ccc(Cl)cc3)c3ccccc3c2=O)CC1` (stereo not drawn) has an inhibition [1] of 87.7%, an inhibition [2] of 72.7% and an inhibition [3] of 43.1%. For the same molecule, the inhibition [4] was 57.9%, the inhibition [5] was 93.7% and the inhibition [6] was 96.4%. The inhibition [7] was 29.4%, the inhibition [8] was 12.9% and the inhibition [9] was 61.5%. For the same molecule, the inhibition [10] was 22.8%.
`N[C@H](C(=O)O)c1ccc(C(=O)O)c(C(=O)O)c1` showed an inhibition [2] of -0.2%, an inhibition [3] of 14.1% and an inhibition [4] of 19.2%. It also gave an inhibition [5] of 13.4%, an inhibition [6] of 1.09% and an inhibition [7] of 29.8%. The inhibition [8] was 13.8%, the inhibition [9] was 18.2% and the inhibition [10] was -1.13%.
`Clc1ccc(CCCOCCCN2CCCCC2)cc1` gave an inhibition [1] of -2.04%, an inhibition [2] of 5.07% and an inhibition [3] of 23.1%. The inhibition [4] was 16.4%, the inhibition [5] was 57% and the inhibition [6] was 28.6%. The inhibition [7] was 3.99%, the inhibition [8] was -6.49% and the inhibition [9] was 1.84%. It also gave an inhibition [10] of 33%.
For `FC(F)(F)c1cccc(-c2noc(-c3cc(-c4ccccc4)c(C(F)(F)F)s3)n2)c1`, the inhibition [3] was -4.18%, the inhibition [4] was -9.1% and the inhibition [5] was 1.03%. It also gave an inhibition [6] of 0.39%, an inhibition [7] of -7.64% and an inhibition [8] of 5.27%. The inhibition [9] was 23.6% and the inhibition [10] was 16.3%.
